± gives the expanded uncertainty stated by the source.

The conditions of the data set: for mass density: 298 K, 101.33 kPa, X-ray diffraction; for Triple point temperature: DSC.

As usually defined, the mass density is mass per unit of volume. On to `[Ag+].[Ag+].[Ag+].[Ag+].[I-].[I-].[I-].[I-].[I-].[Rb+]` [rubidium silver iodide (Ag4RbI5)], for which the mass density (Crystal) was determined as 5389 ± 2 kg/m3.
Take `[Ag+].[Ag+].[Te-2]` [silver(I) telluride]: under “Crystal 3”, the mass density is 8321 ± 2 kg/m3 and the Triple point temperature is 418 ± 4 K. Moreover, the Normal melting temperature (Crystal 1, DTA) was 962 ± 4 °C. For the same compound, the Triple point temperature (Crystal 2) is 1075 ± 4 K.

The values above are taken from the NIST ThermoML archive (doi:10.1016/j.jct.2018.08.012).
